Patent US20220340566A1, “BENZYL AMINE-CONTAINING 5,6-HETEROAROMATIC COMPOUNDS USEFUL AGAINST MYCOBACTERIAL INFECTION” (priority 2019, published 2022)
Like-named read-outs stand apart in the source and are kept apart here.

How the values were obtained:
[1] = tested on: Mycobacterium avium ATCC700898; experiment: Determination of IC85 against M. avium (resazurin fluorescence); format: cell-based; details: 37° C., 3 days incubation then resazurin, fluorescence one day later
[2] = Metabolic stability test in pooled human liver microsomes; format: in vitro ADME; details: human liver microsomes 0.5 mg protein/mL, 1 mmol/L NADPH, 37° C., 30 minutes
Description: Using a commercially available pooled human liver microsomes, a compound of the present invention was reacted for a constant time, a remaining rate was calculated by comparing a reacted sample and an unreacted sample, thereby, a degree of metabolism in liver was assessed.
A reaction was performed (oxidative reaction) at 37° C. for 0 minute or 30 minutes in the presence of 1 mmol/L NADPH in 0.2 mL of a buffer (50 mmol/L Tris-HCl pH 7.4, 150 mmol/L potassium chloride, 10 mmol/L magnesium chloride) containing 0.5 mg protein/mL of human liver microsomes. After the reaction, 50 μL of the reaction solution was added to 100 μL of a methanol/acetonitrile=1/1 (v/v), mixed and centrifuged at 3000 rpm for 15 minutes. The compound of the present invention in the supernatant was quantified by LC/MS/MS or solid phase extraction (SPE)/MS, and a remaining amount of the compound of the present invention after the reaction was calculated, letting a compound amount at 0 minute reaction time to be 100%.

[3] = Mycobacterium avium, ATCC700898, M. avium ATCC700898, CAMHB medium, read-out: IC85

| Compound | IC85 [1, 3] [nM] | MS_h_% (remaining amount of compound after reaction, 0 minute = 100%) [2] [%] | IC85 ([1]; M. avium ATCC700898, CAMHB medium) [nM] |
| --- | --- | --- | --- |
| CCc1nc2ccc(Cl)cn2c1C(=O)NCc1ccc(N2CCC(c3ccc(OC(F)(F)F)cc3)CC2)c(Cl)c1.Cl [Compound I-1-80] | 60 | 74 |  |
| Cc1ccn2c(C(=O)NCc3ccc(N4CCC(c5ccc(OC(F)(F)F)cc5)CC4)cc3F)c(C)nc2c1.Cl [Compound I-1-81] | 330 | 94 |  |
| Cc1ccn2c(C(=O)NCc3ccc(N4CCC(c5ccc(OC(F)(F)F)cc5)CC4)c(Cl)c3)c(C)nc2c1.Cl [Compound I-1-82] | 500 | 98 |  |
| CCc1nc2cc(Cl)ccn2c1C(=O)NCc1ccc(N2CCN(c3ccc(OC(F)(F)F)cc3)[C@H](C)C2)c(F)c1.Cl [Compound I-1-83] | 620 | 85 |  |
| Cc1nc2ccc(F)cn2c1C(=O)NCc1ccc(N2CCN(c3ccc(OC(F)(F)F)cc3)[C@H](C)C2)c(F)c1.Cl [Compound I-1-84] | 38 | 86 |  |
| Cc1nc2ccc(Cl)cn2c1C(=O)NCc1ccc(N2CCN(c3ccc(OC(F)(F)F)cc3)[C@H](C)C2)c(F)c1.Cl [Compound I-1-85] | 6.9 | 91 |  |
| CCc1nc2ccc(Cl)cn2c1C(=O)NCc1ccc([C@@H]2CO[C@@H](c3ccc(OC(F)(F)F)cc3)CO2)c(F)c1 [Compound I-1-86] | 28 | 77 |  |
| CCc1nc2cc(F)ccn2c1C(=O)NCc1ccc(N2CC=C(c3ccc(OC(F)(F)F)cc3)CC2)c(F)c1.Cl [Compound I-1-87] | 7.9 | 86 |  |
| CCc1nc2cc(F)ccn2c1C(=O)NCc1cc(F)c(N2CCC(c3ccc(OC(F)(F)F)cc3)CC2)c(F)c1.Cl [Compound I-1-88] | 6.1 | 89 |  |
| COc1ccn2nc(C)c(C(=O)NCc3ccc(C4CCN(c5ccc(OC(F)(F)F)cc5)CC4)c(F)c3)c2c1.Cl [Compound I-1-89] | 7.2 | 65 |  |
| COc1ccn2nc(C)c(C(=O)NCc3ccc(N4CCN(c5ccc(OC(F)(F)F)cc5)[C@@H](C)C4)c(F)c3)c2c1.Cl [Compound I-1-90] | 5.2 | 91 |  |
| COc1ccn2nc(C)c(C(=O)NCc3ccc(N4CCN(c5ccc(OC(F)(F)F)cc5)[C@H](C)C4)c(F)c3)c2c1.Cl [Compound I-1-91] | 5.3 | 89 |  |
| CCc1nc2ccc(Cl)cn2c1C(=O)NCc1cc(F)c(N2CCN(c3ccc(OC(F)(F)F)cc3)[C@@H](C)C2)c(F)c1.Cl [Compound I-1-92] | 5.5 | 66 |  |
| CCc1nc2ccc(Cl)cn2c1C(=O)NCc1ccc(N2CCN(c3ccc(OC(F)(F)F)cc3)[C@@H](C)C2)c(F)c1F.Cl [Compound I-1-93] | 11 | 67 |  |
| CCc1nc2ccc(Cl)cn2c1C(=O)NCc1cc(F)c(N2CCN(c3ccc(OC(F)(F)F)cc3)[C@@H](C)C2)cc1F.Cl [Compound I-1-94] | 14 | 67 |  |
| CCc1nc2cc(F)ccn2c1C(=O)NCc1cc(F)c(N2CCN(c3ccc(OC(F)(F)F)cc3)[C@@H](C)C2)c(F)c1.Cl [Compound I-1-95] | 2.2 | 91 |  |
| CCc1nc2cc(F)ccn2c1C(=O)NCc1ccc(N2CCN(c3ccc(OC(F)(F)F)cc3)[C@@H](C)C2)c(F)c1F.Cl [Compound I-1-96] | 11 | 90 |  |
| CCc1nc2cc(F)ccn2c1C(=O)NCc1cc(F)c(N2CCN(c3ccc(OC(F)(F)F)cc3)[C@@H](C)C2)cc1F.Cl [Compound I-1-97] | 7.2 | 86 |  |
| CCc1nc2ccc(Cl)cn2c1C(=O)NCc1ccc(N2CCN(c3ccc(OC(F)(F)F)cc3F)[C@@H](C)C2)c(F)c1.Cl [Compound I-1-98] | 8.8 | 76 |  |
| CCc1nc2ccc(Cl)cn2c1C(=O)NCc1ccc(N2CCN(c3ncc(C(F)(F)F)cc3F)[C@@H](C)C2)c(F)c1.Cl [Compound I-1-99] | 35 | 77 |  |
| CCOc1ccc(N2CCN(c3ccc(CNC(=O)c4c(CC)nc5ccc(Cl)cn45)c(F)c3)C[C@@H]2C)cc1.Cl [Compound I-1-100] | 46 | 65 |  |

| Compound | IC85 [1, 3] [nM] | MS_h_% (remaining amount of compound after reaction, 0 minute = 100%) [2] [%] | IC85 ([1]; M. avium ATCC700898, CAMHB medium) [nM] |
| --- | --- | --- | --- |
| CCOc1ccc(N2CCN(c3ccc(CNC(=O)c4c(CC)nc5ccc(Cl)cn45)c(F)c3)C[C@@H]2C)c(F)c1.Cl [Compound I-1-101] | 470 | 90 |  |
| CCc1nc2ccc(Cl)cn2c1C(=O)NCc1ccc(N2CCN(c3ccc(OCC4CC4)cc3)[C@@H](C)C2)cc1F.Cl [Compound I-1-102] | 24 | 75 |  |
| CCCCOc1ccc(N2CCN(c3ccc(CNC(=O)c4c(CC)nc5ccc(Cl)cn45)c(F)c3)C[C@@H]2C)cc1.Cl [Compound I-1-103] | 19 | 64 |  |
| Cc1nn2ccccc2c1C(=O)NCc1ccc(N2CCN(c3ccc(OC(F)(F)F)cc3)[C@@H](C)C2)c(F)c1.Cl [Compound I-1-104] | 92 | 72 |  |
| Cc1nn2cc(F)ccc2c1C(=O)NCc1ccc(N2CCN(c3ccc(OC(F)(F)F)cc3)[C@@H](C)C2)c(F)c1.Cl [Compound I-1-105] | 59 | 77 |  |
| CCc1nc2ccc(Cl)cn2c1C(=O)NCc1ccc(C2CCN(c3ccc(OC(F)(F)F)cc3)[C@@H](C)C2)c(F)c1.Cl (stereo partly shown) [Compound I-1-106] | 6.2 | 59 |  |
| CCc1nc2ccc(Cl)cn2c1C(=O)NCc1ccc(C2=C[C@H](C)N(c3ccc(OC(F)(F)F)cc3)CC2)c(F)c1.Cl [Compound I-1-107] | 7 | 71 |  |
| CCc1nc2cc(F)ccn2c1C(=O)NCc1ccc(N2CCN(c3ccc(OC(F)(F)F)cn3)[C@@H](C)C2)c(F)c1.Cl [Compound I-1-108] | 4.2 | 71 |  |
| CCOc1ccc(N2CCN(c3ccc(CNC(=O)c4c(CC)nc5cc(F)ccn45)cc3F)C[C@@H]2C)cc1.Cl [Compound I-1-109] | 7.1 | 80 |  |
| CCc1nc2cc(F)ccn2c1C(=O)NCc1ccc(N2CCN(c3ccc(OC4CC4)cc3)[C@@H](C)C2)c(F)c1.Cl [Compound I-1-110] | 9.3 | 80 |  |
| CCc1nc2cc(F)ccn2c1C(=O)NCc1ccc(N2CCN(c3ccc(OC(C)C)cc3)[C@@H](C)C2)c(F)c1.Cl [Compound I-1-111] | 7.1 | 88 |  |
| CCc1nc2cc(F)ccn2c1C(=O)NCc1ccc(N2CCN(c3ccc(C(F)(F)F)cc3)[C@@H](C)C2)c(F)c1.Cl [Compound I-1-112] | 1.4 | 69 |  |
| CCc1nc2cc(F)ccn2c1C(=O)NCc1ccc(N2CCN(c3ccc(C(F)(F)F)cn3)[C@@H](C)C2)c(F)c1.Cl [Compound I-1-113] | 4.8 | 79 |  |
| CCc1nc2cc(F)ccn2c1C(=O)NCc1ccc(N2CCN(c3ccc(C(F)(F)F)cn3)[C@@H](C)C2)c(F)c1.Cl [Compound I-1-114] |  | 87 | 7.4 |
| CCc1nc2cc(F)ccn2c1C(=O)NCc1ccc(N2CCN(c3ccc(OCC(F)(F)F)cc3)[C@@H](C)C2)c(F)c1.Cl [Compound I-1-115] | 4.6 | 69 |  |
| CCc1nc2cc(F)ccn2c1C(=O)NCc1ccc(N2CCN(c3ccc(OCC(F)(F)F)nc3)[C@@H](C)C2)c(F)c1.Cl [Compound I-1-116] | 11 | 87 |  |
| CCc1nc2cc(F)ccn2c1C(=O)NCc1ccc(N2CCN(c3ccc(OC(F)(F)F)c(F)c3)[C@@H](C)C2)c(F)c1.Cl [Compound I-1-117] | 2.5 | 83 |  |
| CCc1nc2cc(F)ccn2c1C(=O)NCc1ccc(N2CCN(c3ccc(OC(F)(F)F)cc3F)[C@@H](C)C2)c(F)c1.Cl [Compound I-1-118] | 7.6 | 97 |  |
| CCc1nc2cc(F)ccn2c1C(=O)NCc1ccc(N2CCN(c3cc(F)c(OC(F)(F)F)c(F)c3)[C@@H](C)C2)c(F)c1.Cl [Compound I-1-119] | 6.5 | 63 |  |
| CCOc1ccc(N2CCN(c3ccc(CNC(=O)c4c(CC)nc5cc(F)ccn45)cc3F)C[C@@H]2C)cn1.Cl [Compound I-1-120] | 12 | 71 |  |
